Measured values reported in patent US8349826B2, “Oxazolidinone derivatives” (Actelion Pharmaceuticals Ltd., priority 2008, dated 2013).
Values after ≈ are worked out from the molar mass of the structure shown.

Tested on: Moraxella catarrhalis A894
Assay: MIC by broth microdilution (cation-adjusted Mueller-Hinton Broth, CLSI M7-A7)
Format: cell-based
Experimental: Minimal inhibitory concentrations (MICS; mg/l) were determined in cation-adjusted Mueller-Hinton Broth by a microdilution procedure following the description given in “Procedures for Dilution Antimicrobial Susceptibility Tests for Bacteria that Grow Aerobically”, Approved standard, 7th ed., Clinical and Laboratory Standards Institute (CLSI) Document M7-A7, Wayne, Pa., USA, 2006. All Example compounds were tested against several Gram positive and Gram negative bacteria such as S. aureus, E. faecalis, S. pneumoniae, M. catarrhalis, A. baumanii, E. coli or P. aeruginosa.

Row | Structure (SMILES) | MIC [µg/mL]
1 | COc1ccc2ncc(=O)n(CCNCC[C@@H]3CN(c4ccc5c(c4)NC(=O)CO5)C(=O)O3)c2n1 [Example 21, 6-methoxy-4-(2-{2-[(R)-2-oxo-3-(3-oxo-3,4-dihydro-2H-benzo[1,4]oxazin-6-yl)-oxazolidin-5-yl]-ethylamino}-ethyl)-4H-pyrido[2,3-b]pyrazin-3-one] | ≤ 0.031
2 | COc1ccc2ncc(=O)n(CCCNC[C@@H]3CN(c4ccc5c(c4)NC(=O)CO5)C(=O)O3)c2n1 [Example 19, 6-methoxy-4-(3-{[(R)-2-oxo-3-(3-oxo-3,4-dihydro-2H-benzo[1,4]oxazin-6-yl)-oxazolidin-5-ylmethyl]-amino}-propyl)-4H-pyrido[2,3-b]pyrazin-3-one] | ≤ 0.031
3 | COc1ccc2ncc(=O)n(CCNCCC3CN(c4cc5c(cn4)OCCO5)C(=O)O3)c2n1 (racemic) [Example 31, rac-4-(2-{2-[3-(2,3-dihydro-[1,4]dioxino[2,3-c]pyridin-7-yl)-2-oxo-oxazolidin-5-yl]-ethylamino}-ethyl)-6-methoxy-4H-pyrido[2,3-b]pyrazin-3-one] | 1 (≈ 2.13 µM)
4 | COc1ccc2ccc(=O)n(CCCNC[C@@H]3CN(c4ccc5c(c4)OCCO5)C(=O)O3)c2c1 [Example 3, 1-(3-{[(R)-3-(2,3-dihydro-benzo[1,4]dioxin-6-yl)-2-oxo-oxazolidin-5-ylmethyl]-amino}-propyl)-7-methoxy-1H-quinolin-2-one] | ≤ 0.031

Now from value to compound:

Row | MIC [µg/mL] | Structure (SMILES)
5 | ≤ 0.031 | O=C(CCn1c(=O)ccc2ccc(Br)cc21)NC[C@@H]1CN(c2ccc3c(c2)NC(=O)CS3)C(=O)O1 [Example 9, 3-(7-bromo-2-oxo-2H-quinolin-1-yl)-N-[(R)-2-oxo-3-(3-oxo-3,4-dihydro-2H-benzo[1,4]thiazin-6-yl)-oxazolidin-5-ylmethyl]-propionamide]
6 | ≤ 0.031 | COc1ccc2ncc(=O)n(CCCNC[C@@H]3CN(c4ccc5c(c4)OCCO5)C(=O)O3)c2n1 [Example 18, 4-(3-{[(R)-3-(2,3-dihydro-benzo[1,4]dioxin-6-yl)-2-oxo-oxazolidin-5-ylmethyl]-amino}-propyl)-6-methoxy-4H-pyrido[2,3-b]pyrazin-3-one]
